Source: US20240358842A1, “PROTEIN STABILIZING COMPOUNDS CONTAINING USP7 LIGANDS” (Stablix, Inc., priority 2021, published 2024)
Read-outs that look alike come from different tables or passages of the source.

What was measured:
USP7 CD + UBL 1-5 = target: T1, USP7 CD + UBL 1-5 (Homo sapiens, UniProt Q93009); assay: Surface plasmon resonance assay (SPR); format: binding
T1 construct: USP7 CD +
Method: The surface plasmon resonance experiments were performed using a Cytiva (formerly GE Healthcare) Biacore 8K equipped with a Series S Sensor Chip SA. The ligands were immobilized via a biotin-modified biotin acceptor peptide. USP7 Ligands were diluted in running buffer (HBS-P+2% DMSO; 10 mM HEPES, pH 7.4, 150 mM NaCl, 1 mM DTT, 0.05% P20, 2% DMSO) to 100 μg/mL and injected at […] until a density between 500-10,000 RU was reached on flow-cell two of each channel, and flow cell one was left blank to serve as a reference surface. Both surfaces were washed until a stable baseline was achieved then 30 startup cycles to condition the surface. To collect kinetic and steady-state binding data, the small molecule analytes were prepared in three-fold dilution series in HBS-P+2% DMSO running buffer. Analytes were injected over both flow cells at a flow rate of […] at 25° C. The complex was allowed to associate for 60 seconds and dissociate for 300 seconds. Data were collected at 10 Hz. The data were fit to a simple 1:1 interaction model global data analysis within Cytiva Biacore Insight Evaluation Software.

USP7 = USP7 (Homo sapiens, UniProt Q93009); assay: Ub-Rho cleavage assay; format: biochemical; settings: Ub-Rho substrate, recombinant USP7; read-out: Ub (Rho) USP7.1 (IC50)
Sequence of USP7 (Q93009 whole entry): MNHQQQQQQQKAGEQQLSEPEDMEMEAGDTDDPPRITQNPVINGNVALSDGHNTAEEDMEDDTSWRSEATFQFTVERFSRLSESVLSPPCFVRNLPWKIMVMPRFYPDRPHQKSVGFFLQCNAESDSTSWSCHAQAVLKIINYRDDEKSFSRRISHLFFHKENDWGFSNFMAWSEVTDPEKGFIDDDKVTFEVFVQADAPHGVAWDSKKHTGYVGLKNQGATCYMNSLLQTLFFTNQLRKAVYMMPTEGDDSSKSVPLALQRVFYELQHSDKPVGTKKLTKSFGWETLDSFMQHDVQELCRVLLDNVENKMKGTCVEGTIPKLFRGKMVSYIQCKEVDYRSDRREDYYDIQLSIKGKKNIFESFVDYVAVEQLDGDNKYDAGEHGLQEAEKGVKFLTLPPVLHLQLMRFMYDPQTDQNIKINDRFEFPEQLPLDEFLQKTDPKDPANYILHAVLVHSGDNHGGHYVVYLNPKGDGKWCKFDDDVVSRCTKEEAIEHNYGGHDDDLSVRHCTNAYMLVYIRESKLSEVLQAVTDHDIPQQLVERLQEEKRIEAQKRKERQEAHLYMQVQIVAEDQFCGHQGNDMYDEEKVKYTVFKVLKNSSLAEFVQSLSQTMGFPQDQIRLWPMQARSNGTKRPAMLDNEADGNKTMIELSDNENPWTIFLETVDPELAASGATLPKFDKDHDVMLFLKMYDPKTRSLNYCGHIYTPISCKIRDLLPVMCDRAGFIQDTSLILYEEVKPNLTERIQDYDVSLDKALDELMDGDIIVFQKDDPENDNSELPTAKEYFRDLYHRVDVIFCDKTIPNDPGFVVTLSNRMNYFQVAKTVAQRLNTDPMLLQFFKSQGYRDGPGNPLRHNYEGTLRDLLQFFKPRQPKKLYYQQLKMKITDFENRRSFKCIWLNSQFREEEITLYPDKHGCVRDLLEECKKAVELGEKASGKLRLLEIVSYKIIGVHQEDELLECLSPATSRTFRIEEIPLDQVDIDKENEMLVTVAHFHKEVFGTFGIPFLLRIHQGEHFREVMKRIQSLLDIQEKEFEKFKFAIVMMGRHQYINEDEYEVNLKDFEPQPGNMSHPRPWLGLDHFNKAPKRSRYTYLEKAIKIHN
Method: All fluorescence measurements were performed on a Molecular Devices FlexStation3 with excitation at 480 nm and emission 540 nm, PMT Gain: Medium, Flash Number: 10. […] Assay buffer for all measurements was 50 mM HEPES, 100 mM NaCl, 0.5 mM EDTA, 1 mM TCEP, 0.1 mg/ml BSA, 0.01% Tween-20, pH 7.8. […] Serial dilutions were made with a Mosquito HTS (SPT Labtech) nanoliter liquid handler. 200 nL of each compound in duplicate or DMSO control were transferred to the assay plate. The first two columns served as positive controls. 9.8 μl per well of USP7 working solution was added to the assay plate. Compound+Protein was incubated for 25 min at 25° C. 10 uL of Ub-Rho substrate was added per well and incubated for an additional 15 min at 25° C. Fluorescence was then measured. Percent response relative to DMSO controls was calculated in GraphPad or Scinamic, and the data was fitted to a non-linear regression to determine IC50 values.

[1] = steady-state KD, read-out: SPR USP7 CD + UBL 1-5 (KD_ss)
[2] = kinetic KD, read-out: SPR USP7 CD + UBL 1-5 (KD_kinetic)

T1 sequence (Q93009 208-1102 limits assumed): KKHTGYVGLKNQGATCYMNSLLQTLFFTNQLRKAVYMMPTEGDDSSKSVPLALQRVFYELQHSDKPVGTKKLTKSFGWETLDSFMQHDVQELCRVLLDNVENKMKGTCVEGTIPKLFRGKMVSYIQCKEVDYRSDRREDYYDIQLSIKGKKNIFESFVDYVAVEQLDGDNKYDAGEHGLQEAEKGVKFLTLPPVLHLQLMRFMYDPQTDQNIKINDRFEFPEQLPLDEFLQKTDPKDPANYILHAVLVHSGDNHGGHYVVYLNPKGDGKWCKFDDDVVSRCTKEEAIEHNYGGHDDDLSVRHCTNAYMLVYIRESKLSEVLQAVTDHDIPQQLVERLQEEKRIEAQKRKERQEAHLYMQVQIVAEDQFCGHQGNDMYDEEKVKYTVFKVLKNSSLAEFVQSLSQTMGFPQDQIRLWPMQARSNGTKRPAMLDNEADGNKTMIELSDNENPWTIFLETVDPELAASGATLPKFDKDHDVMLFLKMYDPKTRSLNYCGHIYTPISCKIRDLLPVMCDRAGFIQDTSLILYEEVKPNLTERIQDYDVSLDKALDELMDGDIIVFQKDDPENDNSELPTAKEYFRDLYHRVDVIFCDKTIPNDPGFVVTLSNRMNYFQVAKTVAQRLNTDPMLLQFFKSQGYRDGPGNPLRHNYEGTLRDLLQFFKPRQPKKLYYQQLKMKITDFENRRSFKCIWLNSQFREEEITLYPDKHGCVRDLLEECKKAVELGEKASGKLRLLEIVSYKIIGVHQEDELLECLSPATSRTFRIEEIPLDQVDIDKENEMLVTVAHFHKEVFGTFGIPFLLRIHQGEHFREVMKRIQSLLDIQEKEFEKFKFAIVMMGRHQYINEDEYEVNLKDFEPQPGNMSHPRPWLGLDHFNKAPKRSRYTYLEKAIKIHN

Structure (SMILES)	Kd (USP7 CD + UBL 1-5; [1])	IC50 (USP7)	Kd (USP7 CD + UBL 1-5; [2])
CN1CCCn2nc(C(=O)Nc3nc4ccc(NS(=O)(=O)c5cccs5)cc4s3)cc2C1 [U77]	1 to 100 µM	> 100 µM	1 to 100 µM
CCc1c(-c2ccc(C(=O)NC)nc2)cnc(CNC(=O)OC(C)(C)C)c1-c1ccc(O)cc1 [U47]	1 to 100 µM	1 to 100 µM	–
CCc1c(-c2ccc(C(=O)NCCCNC(=O)CCCCCNC(=O)OC(C)(C)C)nc2)cnc(N)c1-c1ccc(O)cc1 [U50]	1 to 100 µM	1 to 100 µM	–
CCc1c(-c2ccc(C(=O)NCCCNC(=O)CCCCCCCNC(=O)OC(C)(C)C)nc2)cnc(N)c1-c1ccc(O)cc1 [U52]	1 to 100 µM	> 100 µM	–
C[C@H](CC(=O)N1CCC(O)(Cn2cnc3cc(NCCN4CCN(CCCNC(=O)OC(C)(C)C)CC4)ccc3c2=O)CC1)c1ccccc1 [U35]	< 1 µM	< 1 µM	–
CCc1c(-c2ccc3[nH]ncc3c2)cnc(C=O)c1-c1ccc(O)cc1 [U65]	1 to 100 µM	1 to 100 µM	–
C[C@H](CC(=O)N1CCC(O)(Cn2cnc3cc(Cl)ccc3c2=O)CC1)c1ccccc1 [U4]	1 to 100 µM	1 to 100 µM	–
CN1CCC(C(=O)Nc2nc3ncc(NS(=O)(=O)c4cccs4)cc3s2)CC1 [U79]	> 100 µM	> 100 µM	–
Cc1cc(Cl)cc(-c2ccnc3cc(CN4C(=O)CCC4=O)sc23)c1OC1CCN(C(=O)CCCCCCCCNC(=O)OC(C)(C)C)CC1 [U31]	1 to 100 µM	> 100 µM	–
O=C(Nc1nc2ccc(NS(=O)(=O)c3cccs3)cc2s1)C1CCNCC1 [U67]	1 to 100 µM	> 100 µM	–
C[C@H](CC(=O)N1CCC(O)(Cn2cnc3cc(C#CCN)ccc3c2=O)CC1)c1ccccc1 [U29]	< 1 µM	> 100 µM	–
C[C@H](CC(=O)N1CCC(O)(Cn2cnc3cc(NC(=O)CCN4CCN(CCN=[N+]=[N-])CC4)ccc3c2=O)CC1)c1ccccc1 [U46]	< 1 µM	< 1 µM	–
CCc1c(-c2ccc3[nH]ncc3c2)cnc(CN)c1-c1ccc(O)cc1 [U63]	1 to 100 µM	1 to 100 µM	–
CCc1c(-c2ccc(C(=O)NC)nc2)cnc(NCCN)c1-c1ccc(O)cc1 [U62]	< 1 µM	1 to 100 µM	–
C[C@H](CC(=O)N1CCC(O)(Cn2cnc3cc(Br)ccc3c2=O)CC1)c1ccccc1 [U3]	1 to 100 µM	1 to 100 µM	1 to 100 µM
CCc1c(-c2ccc(C(=O)NCCCNC(=O)CCOCCNC(=O)OC(C)(C)C)nc2)cnc(N)c1-c1ccc(O)cc1 [U55]	1 to 100 µM	1 to 100 µM	–
CN1CCC(C(=O)Nc2nc3ccc(N(C)S(=O)(=O)c4cccs4)cc3s2)CC1 [U75]	> 100 µM	> 100 µM	–
CCn1cc(S(=O)(=O)Nc2ccc3nc(NC(=O)C4CCN(C)CC4)sc3c2)cn1 [U73]	> 100 µM	1 to 100 µM	–
Cc1ccsc1S(=O)(=O)Nc1ccc2nc(NC(=O)C3CCN(C)CC3)sc2c1 [U81]	1 to 100 µM	> 100 µM	–
Cc1cc(Cl)cc(-c2ccnc3cc(CN4C(=O)CCC4=O)sc23)c1OC1CCN(C(=O)CCNC(=O)OC(C)(C)C)CC1 [U13]	1 to 100 µM	1 to 100 µM	–
Cc1cc(Cl)cc(-c2ccnc3cc(CN4C(=O)CCC4=O)sc23)c1OC1CCNCC1 [U16]	< 1 µM	< 1 µM	< 1 µM
CCc1c(-c2ccc(C(=O)NCCCNC(=O)CCCCC(=O)OC(C)(C)C)nc2)cnc(N)c1-c1ccc(O)cc1 [U49]	1 to 100 µM	1 to 100 µM	–
CCc1c(-c2ccc(C(=O)NCCCNC(=O)CCOCCOCCOCCOCCNC(=O)OC(C)(C)C)nc2)cnc(N)c1-c1ccc(O)cc1 [U58]	1 to 100 µM	1 to 100 µM	–
C[C@H](CC(=O)N1CCC(O)(Cn2cnc3c(C#CCO)n(C)nc3c2=O)CC1)c1ccccc1 [U23]	< 1 µM	< 1 µM	–
CC(C)(C)OC(=O)N1CCC(C(=O)Nc2nc3ccc(N(S(=O)(=O)c4cccs4)S(=O)(=O)c4cccs4)cc3s2)CC1 [U66]	1 to 100 µM	> 100 µM	–
Nc1ncc(-c2ccc(O)cc2)cc1-c1ccc(O)cc1 [U24]	1 to 100 µM	1 to 100 µM	–
Cc1cc(Cl)cc(-c2ccnc3cc(CN4C(=O)CCC4=O)sc23)c1OC1CCN(CCCNC(=O)OC(C)(C)C)CC1 [U9]	< 1 µM	< 1 µM	< 1 µM
Cc1cc(Cl)cc(-c2ccnc3cc(CN4C(=O)CCC4=O)sc23)c1OC1CCN(CCCNC(=O)CCCCCCCNC(=O)OC(C)(C)C)CC1 [U41]	< 1 µM	< 1 µM	–

Second part, the compound after the results:

Kd (USP7 CD + UBL 1-5; [1])	IC50 (USP7)	Kd (USP7 CD + UBL 1-5; [2])	Structure (SMILES)
1 to 100 µM	> 100 µM	–	CN1CCCn2nc(C(=O)Nc3nc4ccc(S(=O)(=O)NC5CCNC5)cc4s3)cc2C1 (centres unmarked) [U127]
> 100 µM	> 100 µM	–	CN1CCC(C(=O)Nc2nc3ccc(NS(=O)(=O)c4cnc(Cl)s4)cc3s2)CC1 [U95]
1 to 100 µM	> 100 µM	–	CN1CCn2cnc(C(=O)Nc3nc4ccc(NS(=O)(=O)c5cccs5)cc4s3)c2C1 [U97]
1 to 100 µM	> 100 µM	–	CN1CCC(C(=O)Nc2nc3ccc(NS(=O)(=O)c4cn5c(n4)CCC5)cc3s2)CC1 [U91]
> 100 µM	> 100 µM	–	CN1CCCn2nc(C(=O)Nc3nc4ccc(N(CCN)S(=O)(=O)c5cccs5)cc4s3)cc2C1 [U108]
1 to 100 µM	> 100 µM	–	C#CCCN1CCCn2nc(C(=O)Nc3nc4ccc(NS(=O)(=O)c5cccs5)cc4s3)cc2C1 [U119]
1 to 100 µM	> 100 µM	–	CN1CCC(C(=O)Nc2nc3ccc(NS(=O)(=O)c4cnccn4)cc3s2)CC1 [U93]
–	< 1 µM	< 1 µM	C[C@H](CC(=O)N1CCC(O)(Cn2cnc3c(-c4ccc(CNC(=O)CCCCNC(=O)OC(C)(C)C)cc4)n(C)nc3c2=O)CC1)c1ccccc1 [U131]
1 to 100 µM	> 100 µM	–	NCc1ccc(Nc2nc3ccc(NS(=O)(=O)c4cccs4)cc3s2)nc1 [U87]
> 100 µM	> 100 µM	–	CN1CCC(NC(=O)c2nc3ccc(NS(=O)(=O)c4cccs4)cc3s2)CC1 [U92]
> 100 µM	> 100 µM	–	CN1CCCn2nc(C(=O)Nc3nc4ccc(N(C)S(=O)(=O)c5cccs5)cc4s3)cc2C1 [U111]
1 to 100 µM	1 to 100 µM	–	O=C(Nc1nc2ccc(NS(=O)(=O)c3cccs3)cc2s1)c1cc2n(n1)CCCN(C1CC1)C2 [U98]
1 to 100 µM	> 100 µM	–	O=C(Nc1nc2ccc(NS(=O)(=O)c3cccs3)cc2s1)c1ccn[nH]1 [U118]
1 to 100 µM	> 100 µM	–	CN1CCCn2nc(C(=O)Nc3nc4ccc(NS(=O)(=O)c5cn6ccccc6n5)cc4s3)cc2C1 [U110]
1 to 100 µM	> 100 µM	–	O=C(O)c1ccc(Nc2nc3ccc(NS(=O)(=O)c4cccs4)cc3s2)nn1 [U84]
–	< 1 µM	< 1 µM	C[C@H](CC(=O)N1CCC(O)(Cn2cnc3c(-c4ccc(CNC(=O)CCCCCCCNC(=O)OC(C)(C)C)cc4)n(C)nc3c2=O)CC1)c1ccccc1 [U133]
1 to 100 µM	> 100 µM	–	C=CC(=O)N1CCC(C(=O)Nc2nc3ccc(NS(=O)(=O)c4cccs4)cc3s2)C1 (centres unmarked) [U129]
1 to 100 µM	> 100 µM	–	CN1CCCn2nc(C(=O)Nc3nc4ccc(NS(=O)(=O)C5CCNC5)cc4s3)cc2C1 (centres unmarked) [U128]
1 to 100 µM	> 100 µM	–	NCc1cc(Nc2nc3ccc(NS(=O)(=O)c4cccs4)cc3s2)ncn1 [U83]
1 to 100 µM	> 100 µM	–	Cn1nc(C(=O)Nc2nc3ccc(NS(=O)(=O)c4cccs4)cc3s2)cc1CN1CCC(CO)CC1 [U105]
1 to 100 µM	> 100 µM	–	CCC(=O)N1CCC(C(=O)Nc2nc3ccc(NS(=O)(=O)c4cccs4)cc3s2)C1 (centres unmarked) [U122]
1 to 100 µM	> 100 µM	–	Cn1ccc(C(=O)Nc2nc3ccc(NS(=O)(=O)c4cccs4)cc3s2)n1 [U107]
1 to 100 µM	1 to 100 µM	–	CCc1c(-c2ccc3[nH]ncc3c2)c(C#N)nc(CNC(=O)OC(C)(C)C)c1-c1ccc(O)cc1 [U86]
1 to 100 µM	> 100 µM	–	CN1CCCn2nc(C(=O)Nc3nc4ccc(N(CC5CCNC5)S(=O)(=O)c5cccs5)cc4s3)cc2C1 (centres unmarked) [U115]
1 to 100 µM	1 to 100 µM	–	CCc1c(-c2ccc3c(cnn3CCN)c2)cnc(CNC(=O)OC(C)(C)C)c1-c1ccc(O)cc1 [U82]
1 to 100 µM	> 100 µM	–	NC1CCn2nc(C(=O)Nc3nc4ccc(NS(=O)(=O)c5cccs5)cc4s3)cc2C1 (centres unmarked) [U112]
1 to 100 µM	> 100 µM	–	CN1CCn2cc(C(=O)Nc3nc4ccc(NS(=O)(=O)c5cccs5)cc4s3)nc2C1 [U99]
1 to 100 µM	> 100 µM	–	CN1CCCn2nc(C(=O)Nc3nc4ccc(NS(=O)(=O)c5cc6ccccn6n5)cc4s3)cc2C1 [U130]
